These results are taken from patent US7282522B2, “Hydroxamic acid derivatives and the method for preparing thereof” (Amorepacific Corporation, priority 2003, dated 2007).

The target in one data set is T1, RARα (Homo sapiens, UniProt P10276).
T1 construct: expressed in transfected cells; host or cells: CV-1 cells (ATCC)
T1 sequence (P10276 1-462): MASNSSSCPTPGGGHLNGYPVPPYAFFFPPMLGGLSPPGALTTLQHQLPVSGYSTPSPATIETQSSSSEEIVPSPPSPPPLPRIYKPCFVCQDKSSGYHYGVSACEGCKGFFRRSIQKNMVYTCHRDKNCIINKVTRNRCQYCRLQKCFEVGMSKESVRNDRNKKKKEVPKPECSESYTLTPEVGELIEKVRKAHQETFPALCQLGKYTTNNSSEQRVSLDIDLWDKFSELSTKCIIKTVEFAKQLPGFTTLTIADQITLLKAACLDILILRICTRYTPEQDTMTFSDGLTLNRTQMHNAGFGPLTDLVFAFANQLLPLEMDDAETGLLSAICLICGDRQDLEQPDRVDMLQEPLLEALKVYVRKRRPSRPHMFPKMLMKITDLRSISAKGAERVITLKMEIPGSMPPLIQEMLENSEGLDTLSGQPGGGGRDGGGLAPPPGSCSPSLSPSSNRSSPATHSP
As to the kind of experiment: RARE-luciferase reporter assay in transfected CV-1 cells (affinity to retinoic acid receptor), RARα. The class given is cell-based. The following applies: treated 24 hours at final concentration 10^−4M, control group 1000. The source says:
This example illustrates affinities of hydroxamic acid derivatives obtained in Examples 1 to 55 to retinoic acid receptor, in comparison with retinol and retinoic acid.
(§1) Receptor-expression plasmid, pECE-RARα and pECE-RARγ were engineered by the prior method (Mol. Cell. Biol. 1996, 16, 1138-1149). RARE-tk-Luc, i.e. RARE reporter was obtained by inserting RARE fragment from b-RARE-tk-CAT into pGL3 luciferase basic vector. CV-1 cells were obtained from ATCC (American Type Culture Collection).
CV-1 cells were seeded into 96-well microtiter plate at 5,000 cells per well and cultured in DMEM (Dulbecco's Modified Eagle's Media) supplemented with 2.5% fetal bovine serum. 24 Hours later, the cells were transfected with 10 ng of pECE-RARα, long of pECE-RARγ, 100 ng of reporter plasmid and 100 ng of β-galactosidase-expression vector, using LipofectaminPlus (GIBCO BRL, grand island, N.Y.). 24 Hours post-transfection, the cells were treated for 24 hours with hydroxamic acid derivatives of Examples 1˜55 or retinol at a final concentration of 10^−4M or with retinoic acid at a final concentration of 10^−5M, which is 10 times lower concentration than those of the former.

For the next data set, the target named is T2, RARγ (Homo sapiens, UniProt P13631).
T2 construct: expressed in transfected cells; host or cells: CV-1 cells (ATCC)
T2 sequence (P13631 1-454): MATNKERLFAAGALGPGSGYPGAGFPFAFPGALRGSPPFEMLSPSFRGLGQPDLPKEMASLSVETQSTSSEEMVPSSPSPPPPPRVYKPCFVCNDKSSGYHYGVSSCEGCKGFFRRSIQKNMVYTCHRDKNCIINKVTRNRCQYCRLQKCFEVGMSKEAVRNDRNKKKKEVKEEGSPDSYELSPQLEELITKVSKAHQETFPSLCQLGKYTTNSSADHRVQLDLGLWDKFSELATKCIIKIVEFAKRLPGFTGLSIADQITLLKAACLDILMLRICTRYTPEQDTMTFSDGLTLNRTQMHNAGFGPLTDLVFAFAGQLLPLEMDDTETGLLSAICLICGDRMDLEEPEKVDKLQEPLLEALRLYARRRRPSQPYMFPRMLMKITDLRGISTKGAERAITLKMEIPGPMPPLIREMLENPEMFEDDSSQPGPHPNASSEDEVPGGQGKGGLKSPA
Kind of data set: RARE-luciferase reporter assay in transfected CV-1 cells (affinity to retinoic acid receptor), RARγ. It counts as cell-based. The following applies: treated 24 hours at final concentration 10^−4M, control group 5000. Here is the method:
as §1
CV-1 cells were seeded into 96-well microtiter plate at 5,000 cells per well and cultured in DMEM (Dulbecco's Modified Eagle's Media) supplemented with 2.5% fetal bovine serum. 24 Hours later, the cells were transfected with 10 ng of pECE-RARα, long of pECE-RARγ, 100 ng of reporter plasmid and 100 ng of β-galactosidase-expression vector, using LipofectaminPlus (GIBCO BRL, grand island, N.Y.).
For orientation: Reporter assays use an easily measured gene product as a stand-in for the process of interest.

A further data set relates to procollagen type I. As to the kind of experiment: Effect on collagen biosynthesis (procollagen type I ELISA) in human fibroblasts. It counts as cell-based. The note with it: 10^−4M, 24 hours, serum-free medium, relative to control group = 100. On the procedure: Human fibroblasts were seeded into 24-well plate at 1×10^5 cells per well and then cultured to 90% of growth.
For each supernatant, procollagen production was measured with procollagen type I ELISA kit.
For orientation: ELISA stands for enzyme-linked immunosorbent assay.

The test system of the next data set is collagenase. As to the kind of experiment: Inhibition of collagenase expression in human fibroblasts (ELISA kit). The following applies: 10^−4M, 24 hours, serum-free medium, relative to control group = 100. It counts as cell-based. Here is the method:
Human fibroblasts were seeded into 96-well microtiter plate at 5,000 cells per well and then cultured to 90% of growth in DMEM (Dulbecco's Modified Eagle's Media) supplemented with 2.5% fetal bovine serum. Then, the fibroblastes were cultured in serum-free DMEM for 24 hours and treated for 24 hours with 10^−4M of hydroxamic acid derivatives of Examples 1˜55, retinol or retinoic acid in serum-free medium, and then the culture fluid was collected.
(§2) For each culture fluid, collagenase production was measured with collagenase kit (commercialized by AmershamPharmacia Biotech). Firstly, the culture fluid was added to 96-well plate spread with primary collagenase antibody and then antigen-antibody reaction was performed in an incubator for 3 hours. Later, chromophore-conjugated secondary antibody was added to the 96-well plate and then reacted for 15 minutes. Then, color former was added thereto, to induce development at room temperature for 15 minutes. 1M of sulfuric acid was added to stop the reaction. […] The color density depends on the progress of the reaction. The absorbance of the yellow 96-well plate was measured at 405 nm using absorptiometer. Collagenase expression was calculated by the following equation 1. Herein, the absorbance of the culture fluid collected from the medium with no material treated was used as a control. Collagenase expression (%)=(Absorbance of test group with said material treated/Absorbance of control group with no material treated)×100 [Equation 1]
Collagenase expression was evaluated as a relative value, in consideration that the value of control group with no material treated is 100.

Another data set deals with elastase. As to the kind of experiment: Inhibition of elastase expression in human fibroblasts (ELISA kit). The note with it: 10^−4M, 24 hours, serum-free medium, relative to control group = 100. The class given is cell-based. On the procedure: as §2, with “elastase” for “collagenase”, “Elastase” for “Collagenase”, “2.” for “1.”, “2]” for “1]”
Elastase expression was evaluated as a relative value, in consideration that the value of control group with no material treated is 100.

The next data set deals with white guinea pigs. As to the kind of experiment: Phototoxicity test (UVA irradiation). The note with it: for Evaluation (phototoxicity): 1%(w/v) solution, UVA 15 J/cm^2; for Phototoxic index: 50 μl of 1%(w/v) solution, UVA 320~380 nm 15 J/cm^2, observed 24, 48 and 72 hours.
Another data set concerns rabbits. Kind of data set: Primary skin irritation test on animals (Draize P.I.I.). The following applies: depilated back; for P.I.I. (Primary Irritation Index): 0.5 ml of 1% solution in 1,3-butylene glycol:ethanol 7:3, observed 24 or 72 hours later; for Evaluation (skin irritation): 1% solution, according to Draize's P.I.I.

Method for white guinea pigs: Test was performed for twenty-five (25) of white guinea pigs whose backs were depilated and fixed. On both sides of the back, six(6) sites of 2 cm×2 cm, three(3) per side were sectioned. Right sites were compared as controls with no irradiation (UV non-irradiation sites) and left sites were irradiated (UV irradiation sites).
30 Minutes later, right sites were shielded with aluminum foil and UVA(320˜380 nm) was irradiated at a distance of about 10 cm therefrom using Waldmann to the final energy of 15 J/cm^2. After 24, 48 and 72 hours elapsed, skin response of guinea pig was observed. […] Evaluation was estimated for each elapsed time, i.e. 24, 48 and 72 hours and maximum scores were selected, to calculate irritation index by the following equation 3. Then, phototoxic index was calculated by the following equation 4. Irritation index=(ΣMaximum of erythema+ΣMaximum of edema)/Number of animals [Equation 3] Phototoxic index=(Irritation index of UV irradiation site)−(Irritation index of UV non-irradiation site) Equation 4]

Take `O=C(NO)c1ccc(NC(=O)c2ccccc2)cc1` [Example 1, N-[4-(N-hydroxycarbamoyl)phenyl]benzamide]: at RARα, the “Luciferase activity RARα” value is given as 10000. In addition, the “Luciferase activity RARγ” value on RARγ came to 12000. Besides, the “Collagen biosynthesis (%)” value in the data set on procollagen type I came out at 105%. Further, the “Collagenase expression (%)” value in the data set on collagenase is reported as 78%. Further, the “Elastase expression (%)” value in the data set on elastase worked out at 79%. For the same compound, in the data set on white guinea pigs, the “Evaluation (phototoxicity)” value is listed as “No phototoxicity (lower value than 0.5, criterion value to be estimated as no phototoxicity)” and the Phototoxic index is 0. In the data set on rabbits, the “P.I.I. (Primary Irritation Index)” value amounted to 0.375 and the “Evaluation (skin irritation)” value is recorded as “No irritation”.
Take `Cc1ccc(C(=O)Nc2ccc(C(=O)NO)cc2)cc1` [Example 2, N-[4-(N-hydroxycarbamoyl)phenyl][4-methylphenyl]carboxyamide]: the “Luciferase activity RARα” value on RARα turned out to be 12000. Also, the “Luciferase activity RARγ” value at RARγ is recorded as 11200. In the data set on procollagen type I, the “Collagen biosynthesis (%)” value was 118%. In addition, the “Collagenase expression (%)” value with collagenase came to 68%. The “Elastase expression (%)” value in the data set with elastase was found to be 78%. Further, in the data set on white guinea pigs, the “Evaluation (phototoxicity)” value was “No phototoxicity (lower value than 0.5, criterion value to be estimated as no phototoxicity)” and the Phototoxic index is 0. Further, in the data set on rabbits, the “P.I.I. (Primary Irritation Index)” value was 0.345 and the “Evaluation (skin irritation)” value is reported as “No irritation”.
For the compound `Cc1cccc(C(=O)Nc2ccc(C(=O)NO)cc2)c1` [Example 3, N-[4-(N-hydroxycarbamoyl)phenyl][3-methylphenyl]carboxyamide], the “Luciferase activity RARα” value at RARα amounted to 11600. On RARγ, the “Luciferase activity RARγ” value worked out at 10000. In the data set with procollagen type I, the “Collagen biosynthesis (%)” value was 120%. In the data set on collagenase, the “Collagenase expression (%)” value is given as 80%. Also, the “Elastase expression (%)” value in the data set on elastase is on record as 69%. In the data set on white guinea pigs, the “Evaluation (phototoxicity)” value is “No phototoxicity (lower value than 0.5, criterion value to be estimated as no phototoxicity)” and the Phototoxic index is on record as 0. In the data set on rabbits, the “P.I.I. (Primary Irritation Index)” value was 0.375 and the “Evaluation (skin irritation)” value is “No irritation”.
Take `CCc1ccc(C(=O)Nc2ccc(C(=O)NO)cc2)cc1` [Example 4, N-[4-(N-hydroxycarbamoyl)phenyl][4-ethylphenyl]carboxyamide]: the “Luciferase activity RARα” value at RARα came to 12000. Besides, at RARγ, the “Luciferase activity RARγ” value turned out to be 12300. In the data set with procollagen type I, the “Collagen biosynthesis (%)” value came to 119%. In the data set with collagenase, the “Collagenase expression (%)” value turned out to be 78%. Further, the “Elastase expression (%)” value in the data set with elastase is 70%. For the same compound, in the data set with white guinea pigs, the “Evaluation (phototoxicity)” value was “No phototoxicity (lower value than 0.5, criterion value to be estimated as no phototoxicity)” and the Phototoxic index worked out at 0. In the data set with rabbits, the “P.I.I. (Primary Irritation Index)” value turned out to be 0.350 and the “Evaluation (skin irritation)” value is “No irritation”.
With `CN(O)C(=O)c1ccc(C(=O)NC23CC4CC(CC(C4)C2)C3)cc1` [Example 44, N-adamantyl [4-(N-hydroxy-N-methylcarbamoyl)phenyl]carboxyamide], the “Luciferase activity RARα” value at RARα worked out at 23100. Moreover, the “Evaluation (phototoxicity)” value in the data set on white guinea pigs was “No phototoxicity (lower value than 0.5, criterion value to be estimated as no phototoxicity)”.
As to `CC1=C(/C=C/C(C)=C/C=C/C(C)=C/C(=O)O)C(C)(C)CCC1` [Retinoic acid, retinoic acid, reference compound], the “Collagen biosynthesis (%)” value with procollagen type I is on record as 125%. Further, the “Collagenase expression (%)” value in the data set with collagenase is 60%. For the same compound, the “Elastase expression (%)” value with elastase turned out to be 68%. For the same compound, in the data set on rabbits, the “P.I.I. (Primary Irritation Index)” value is reported as 1.830 and the “Evaluation (skin irritation)” value was “Light irritation”.
For the compound `CC1=C(/C=C/C(C)=C/C=C/C(C)=C/CO)C(C)(C)CCC1` [Retinol, retinol, reference compound], the “Luciferase activity RARα” value on RARα worked out at 2500. At RARγ, the “Luciferase activity RARγ” value is recorded as 6000. Further, the “Collagen biosynthesis (%)” value in the data set on procollagen type I came out at 120%. The “Collagenase expression (%)” value in the data set with collagenase amounted to 85%. Also, the “Elastase expression (%)” value with elastase came to 88%.
